Results published in PMC6290023 (Scientific Reports, 2018).
Peptide text beside a SMILES is read from it.

Assays:
[1] = system: FeCl3-induced thrombosis model in CCA; experiment: FeCl3-induced thrombosis model in CCA, thrombolysis with tPA; assay type: in vivo; conditions: mouse, tPA 10 mg/kg 30 min post-CCA occlusion
Method: The ischemic damage was evaluated at 48 h after MCAo in sections stained with cresyl violet. Coronal sections (12 μm thickness) were made at −1.4, −0.7, 0, 0.7 and 1.4 mm from the bregma, mounted on the stereomicroscope and photographed. The volume of the infarct was calculated by the sum of each area of all sections corrected by cerebral edema and multiplied by the thickness of the slices. In the experiment of tPA-induced hemorrhage, PE10-catheter was placed in the right internal jugular vein at 6 h after ischemia. The nylon suture was then removed and 10% of the MHP-AcN mixture (150 µg/mice) and tPA (10 mg/kg) were injected followed by continuous injection of residual mixture of MHP1-AcN and tPA using a syringe pump (UNIVENTOR 400 ANAESTHESIA UNIT, ZTN, MALTA). In the experiment of FeCl3 -induced thrombosis model in CCA, a piece of filter paper soaked in 7.5% FeCl3 was placed on the right CCA for 1 min and it was rinsed with saline. Blood flow was recorded by using a laser speckle blood flow imager (OMEGAZONE OZ-2, OMEGAWAVE, INC., Tokyo, Japan). tPA (10 mg/kg) or mixture of MHP1-AcN (150 μg/mice) and tPA was started to be administered at 30 min after CCA occlusion.

[2] = system: tMCAo model in mice; conditions: cited from earlier work
Method: As we have previously shown that intravenous injection of MHP1 (150 μL, 2 mg/ml), started from 6 hrs after tMCAo and followed by subcutaneous injection with Alzet pump (200 μL, 2 mg/ml) for 24 h, is effective, we studied whether a lower dose of MHP1-AcN was effective in reducing ischemic injury.

[3] = system: mouse osteoclast precursor cells; conditions: cited from earlier work
Description: (§1) To solve this problem, we developed a novel peptide “microglial healing peptide1 (MHP1)”, which is a partial peptide of RANKL, to inhibit […] inflammation without activating osteoclast. The binding sites of RANKL for its receptor RANK responsible for osteoclastogenesis were not included in the MHP1 sequence, but other binding sites that are unrelated to osteoclastogenesis (DE and EF loops) were included. […] The sequence of MHP1 is “[…]” and we demonstrat ...

[4] = system: TLR2, 7, 8; conditions: cited from earlier work
Description: as §1

[5] = system: LPS-stimulated MG6 cells; conditions: peptide incubated at 37 °C for 24 h; cited from earlier work
Method: This might be a result of the key sequence of MHP1 being preserved owing to N-terminus acetylation, which generally makes the peptide resistant to protease degradation. The difference in causing sedimentation at 37 °C for 24 h between MHP1-Ac and MHP1-AcN was dependent on the existence of C-terminal amidation, which has been reported to promote the stabilization of the secondary structure of the peptide.

[6] = Stability of MHP1 in mouse serum (HPLC/MS); assay type: in vitro ADME; conditions: mouse (CD-1(ICR)) serum, 200 μg/mL MHP1, 37 °C, HPLC UV 210 nm, mean ± SD
Method: Mouse (CD-1(ICR)) serum was obtained from KAC (Kyoto, Japan) and stored below −15 °C until use. MHP1 (2 mg/mL in ultrapure water) was spiked in mouse serum on ice to obtain a final concentration of 200 μg/mL. The serum was incubated at 37 °C and aliquots of the reaction mixture collected at the incubation times 0, 10, 30, and 60 min. Each aliquot was deproteinized with the addition of an ice-cold solvent (acetonitrile: methanol: acetic acid = 500:500:1). The mixtures were left at −20 °C for 20 minutes and stored on ice. After the addition of 1% acetic acid, the mixture was vigorously vortexed and centrifuged (12000 × g, 4 °C, 10 min). The supernatant was injected into the HPLC system and analyzed by reversed-phase chromatography with a water–acetonitrile (0.1% trifluoroacetic acid) linear gradient elution. MHP1 was detected by ultraviolet light at 210 nm.

remaining at 10 min, 200 μg/mL ([6]; 10 min, read-out: residual MHP1 remaining intact in mouse serum) [%] | residual MHP1 remaining intact in mouse serum ([6]; 30 min) [%] | remaining at 0.5 h, 200 μg/mL ([6]; 30 min, read-out: residual MHP1 remaining intact in mouse serum) [%] | remaining at 1 h, 200 μg/mL ([6]; 60 min, read-out: residual MHP1 remaining intact in mouse serum) [%] | Compound | time from tPA application to clot lysis (recanalization) [1] | efficacy in tMCAo ([2]; i.v. 150 μL, 2 mg/ml from 6 hrs after tMCAo, then s.c. Alzet pump 200 μL, 2 mg/ml for 24 h) | ischemic injury in tMCAO model ([2]; intracerebroventricularly 4 h, or intravenously 4 or 6 h post-ischemia) | effect on RANKL-induced osteoclast activation [3] | effect on osteoclast activation (peptide alone) [3] | effect on TLR2, 7, 8-induced inflammations [4] | anti-inflammatory effects after incubation at 37 °C for 24 h [5]
 |  |  |  | tPA: tissue plasminogen activator, thrombolytic used in acute ischemic stroke | approximately 20 min |  |  |  |  |  | 
83 ± 5.9 | 50.3 ± 3.6 | 50 | 27.5 ± 3.2 | CC[C@H](C)[C@H](NC(=O)[C@H](CO)NC(=O)[C@@H](NC(=O)[C@H](CCCCN)NC(=O)[C@@H](NC(=O)[C@@H](NC(=O)[C@H](Cc1ccc(O)cc1)NC(=O)[C@@H](NC(=O)[C@H](CCSC)NC(=O)[C@@H](N)CC(C)C)C(C)C)C(C)C)C(C)C)[C@@H](C)O)C(=O)N[C@@H](CCCCN)C(=O)N[C@H](C(=O)N1CCC[C@H]1C(=O)N[C@@H](CO)C(=O)N[C@@H](CO)C(=O)N[C@@H](Cc1c[nH]cn1)C(=O)N[C@@H](CC(N)=O)C(=O)N[C@@H](CC(C)C)C(=O)N[C@@H](CCSC)C(=O)N[C@@H](CCCCN)C(=O)NCC(=O)NCC(=O)N[C@@H](CO)C(=O)N[C@H](C(=O)N[C@@H](CCCCN)C(=O)N[C@@H](CC(N)=O)C(=O)N[C@@H](Cc1c[nH]c2ccccc12)C(=O)N[C@@H](CO)C(=O)NCC(=O)N[C@@H](CC(N)=O)C(=O)O)[C@@H](C)O)[C@@H](C)CC [MHP1] (H-LMVYVVKTSIKIPSSHNLMKGGSTKNWSGN-OH) |  | effective | reduced | inhibited RANKL-induced osteoclast activation | did not affect osteoclast activation | inhibited | loses its anti-inflammatory effects
